Experimental data taken from patent US8192962B2, “Processes for detecting toxic substances” (Daikin Industries, Ltd., priority 2001, dated 2012).
Where “and” joins values, the source holds several entries; their conditions need not be identical. Equal values may be shown once.

Test system: DNA repair protein genes
Assay: DNA chip mRNA expression in yeast, DNA repair protein genes (Table 3)
Assay type: cell-based, Saccharomyces cerevisiae S288C
Conditions: incubated two hours, concentrations as in the 1st table
How it was run: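 Ratios compare mRNA levels in stressed and control S. cerevisiae. Each toxicant was applied for two hours to log-phase cultures at 25° C. at a sub-lethal, growth-inhibiting level; fluorescent cDNA (Cy3- or Cy5-dUTP) was hybridized to a genome-wide yeast chip for over 12 h at 65° C.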

Oc1cc(Cl)c(Cl)cc1Cl [(6), 2,4,5-trichlorophenol]
The level of expressed mRNA in the presence of chemical substance/The level of expressed mRNA in the absence of chemical substance (yeast gene YAL015C): 0.7
The level of expressed mRNA in the presence of chemical substance/The level of expressed mRNA in the absence of chemical substance (yeast gene YBL019W): 1.0
The level of expressed mRNA in the presence of chemical substance/The level of expressed mRNA in the absence of chemical substance (yeast gene YBR073W): 0.7
The level of expressed mRNA in the presence of chemical substance/The level of expressed mRNA in the absence of chemical substance (yeast gene YCR014C): 1.1
The level of expressed mRNA in the presence of chemical substance/The level of expressed mRNA in the absence of chemical substance (yeast gene YDL017W): 1.1
The level of expressed mRNA in the presence of chemical substance/The level of expressed mRNA in the absence of chemical substance (yeast gene YDL059C): 1.2
The level of expressed mRNA in the presence of chemical substance/The level of expressed mRNA in the absence of chemical substance (yeast gene YDL200C): 0.6
The level of expressed mRNA in the presence of chemical substance/The level of expressed mRNA in the absence of chemical substance (yeast gene YDR054C): 1.9
The level of expressed mRNA in the presence of chemical substance/The level of expressed mRNA in the absence of chemical substance (yeast gene YDR369C): 0.6
The level of expressed mRNA in the presence of chemical substance/The level of expressed mRNA in the absence of chemical substance (yeast gene YEL019C): 1.5
The level of expressed mRNA in the presence of chemical substance/The level of expressed mRNA in the absence of chemical substance (yeast gene YEL037C): 0.6
The level of expressed mRNA in the presence of chemical substance/The level of expressed mRNA in the absence of chemical substance (yeast gene YER162C): 0.7
The level of expressed mRNA in the presence of chemical substance/The level of expressed mRNA in the absence of chemical substance (yeast gene YFL014W): 9.3
The level of expressed mRNA in the presence of chemical substance/The level of expressed mRNA in the absence of chemical substance (yeast gene YGL058W): 1.0 and 1.5
The level of expressed mRNA in the presence of chemical substance/The level of expressed mRNA in the absence of chemical substance (yeast gene YGL091C): 1.6
The level of expressed mRNA in the presence of chemical substance/The level of expressed mRNA in the absence of chemical substance (yeast gene YGL127C): 0.6
The level of expressed mRNA in the presence of chemical substance/The level of expressed mRNA in the absence of chemical substance (yeast gene YGL163C): 0.9
The level of expressed mRNA in the presence of chemical substance/The level of expressed mRNA in the absence of chemical substance (yeast gene YGL249W): 2.5
The level of expressed mRNA in the presence of chemical substance/The level of expressed mRNA in the absence of chemical substance (yeast gene YGR180C): 0.6 and 1.0
The level of expressed mRNA in the presence of chemical substance/The level of expressed mRNA in the absence of chemical substance (yeast gene YGR231C): 1.9
The level of expressed mRNA in the presence of chemical substance/The level of expressed mRNA in the absence of chemical substance (yeast gene YGR258C): 2.2
The level of expressed mRNA in the presence of chemical substance/The level of expressed mRNA in the absence of chemical substance (yeast gene YHR164C): 1.4
The level of expressed mRNA in the presence of chemical substance/The level of expressed mRNA in the absence of chemical substance (yeast gene YIL036W): 1.8
The level of expressed mRNA in the presence of chemical substance/The level of expressed mRNA in the absence of chemical substance (yeast gene YIL072W): 1.2
The level of expressed mRNA in the presence of chemical substance/The level of expressed mRNA in the absence of chemical substance (yeast gene YIL143C): 1.4
The level of expressed mRNA in the presence of chemical substance/The level of expressed mRNA in the absence of chemical substance (yeast gene YIL153W): 0.9
The level of expressed mRNA in the presence of chemical substance/The level of expressed mRNA in the absence of chemical substance (yeast gene YIR002C): 2.2
The level of expressed mRNA in the presence of chemical substance/The level of expressed mRNA in the absence of chemical substance (yeast gene YJL026W): 1.0
The level of expressed mRNA in the presence of chemical substance/The level of expressed mRNA in the absence of chemical substance (yeast gene YJR046W): 2.0
The level of expressed mRNA in the presence of chemical substance/The level of expressed mRNA in the absence of chemical substance (yeast gene YJR052W): 1.4
The level of expressed mRNA in the presence of chemical substance/The level of expressed mRNA in the absence of chemical substance (yeast gene YKL145W): 2.1
The level of expressed mRNA in the presence of chemical substance/The level of expressed mRNA in the absence of chemical substance (yeast gene YLR103C): 1.1
The level of expressed mRNA in the presence of chemical substance/The level of expressed mRNA in the absence of chemical substance (yeast gene YLR233C): 0.8
The level of expressed mRNA in the presence of chemical substance/The level of expressed mRNA in the absence of chemical substance (yeast gene YLR288C): 1.2
The level of expressed mRNA in the presence of chemical substance/The level of expressed mRNA in the absence of chemical substance (yeast gene YML032C): 0.9
The level of expressed mRNA in the presence of chemical substance/The level of expressed mRNA in the absence of chemical substance (yeast gene YMR035W): 1.5
The level of expressed mRNA in the presence of chemical substance/The level of expressed mRNA in the absence of chemical substance (yeast gene YMR072W): 1.6 and 2.4
The level of expressed mRNA in the presence of chemical substance/The level of expressed mRNA in the absence of chemical substance (yeast gene YMR096W): 2.2
The level of expressed mRNA in the presence of chemical substance/The level of expressed mRNA in the absence of chemical substance (yeast gene YMR284W): 0.8 and 1.2
The level of expressed mRNA in the presence of chemical substance/The level of expressed mRNA in the absence of chemical substance (yeast gene YNL213C): 1.7
The level of expressed mRNA in the presence of chemical substance/The level of expressed mRNA in the absence of chemical substance (yeast gene YNL250W): 0.8
The level of expressed mRNA in the presence of chemical substance/The level of expressed mRNA in the absence of chemical substance (yeast gene YNL261W): 1.3
The level of expressed mRNA in the presence of chemical substance/The level of expressed mRNA in the absence of chemical substance (yeast gene YNL312W): 1.7
The level of expressed mRNA in the presence of chemical substance/The level of expressed mRNA in the absence of chemical substance (yeast gene YOL043C): 0.8
The level of expressed mRNA in the presence of chemical substance/The level of expressed mRNA in the absence of chemical substance (yeast gene YOR005C): 1.3
The level of expressed mRNA in the presence of chemical substance/The level of expressed mRNA in the absence of chemical substance (yeast gene YOR386W): 3.3
The level of expressed mRNA in the presence of chemical substance/The level of expressed mRNA in the absence of chemical substance (yeast gene YPL022W): 5.2
The level of expressed mRNA in the presence of chemical substance/The level of expressed mRNA in the absence of chemical substance (yeast gene YPL164C): 1.7
The level of expressed mRNA in the presence of chemical substance/The level of expressed mRNA in the absence of chemical substance (yeast gene YPL194W): 1.1
The level of expressed mRNA in the presence of chemical substance/The level of expressed mRNA in the absence of chemical substance (yeast gene YPR025C): 0.9
